In patent EP0694547B1, “2-(2-amino-1,6-dihydro-6-oxo-purin-9-yl)methoxy-1,3-propanediol derivatives” (F. Hoffmann-La Roche AG, priority 1994, dated 1996):

Assays:
[1] = type: physicochemical; settings: pH 7
Procedure: Alternatively, the compound of the invention may be prepared using optically active reactants. When pure diastereomers of mono-L-valine ganciclovir are prepared the condensation step (d) is the preferred method of synthesis. However, if optically active reagents are being used it would be important to avoid the pH range above 6, as at the higher pH range interconversion of the free compound of Formula I occurs.

[2] = Determination of oral absorption (bioavailability) in the rat
Procedure: The following assay was used to determine the oral absorption (oral bioavailability) of the compound of Formula I (L-monovaline ester of ganciclovir) and of other ganciclovir amino acid esters, other ganciclovir esters and ethers examined for comparative purposes.
To measure the oral bioavailability of a compound first the plasma level of the compound in male rats was determined after a single oral (po) dose of the compound. […] For ganciclovir the single dose in each case, po and iv, is 10 mg/kg; for a prodrug ester (including the L-monovaline ester of ganciclovir) the single dose in each case, oral and iv, is a dose equimolar to 10 mg/kg of ganciclovir. From the two measurements following po and iv administration, the oral bioavailability of a compound was calculated by dividing the total area under the concentration vs. time curve following p.o. administration by the total area under the concentration vs. time curve following iv administration, appropriately corrected for dose, according to the equation: F(p.o.) (%) = [AUC(p.o.) /AUC(i.v.) ] x [Dose(i.v.) / Dose(p.o.) ] x 100 [formula]
The dose vehicle for oral and intravenous dosing consisted normal saline containing 2 % acetic acid. In both cases the compound concentration was equivalent to 4.0 mg/ml ganciclovir with a dose rate equivalent to 10 mg/kg (2.5 ml/kg) of ganciclovir. A 200 gm rat received 0.5 ml of the oral drug solution by gavage or via injection into the tail vein.
The rats were acclimatized to the laboratory environment for three days and fasted overnight before start of the experiment and until 4 hours after dosing. Blood was collected from 4 rats at each of the following times: 0 min (pre-dose), 5 min (iv only), 15 min, 30 min, 1 hr, 2 hr, 3 hr, 5 hr, 7 hr, 10 hr and 24 hr. The blood was immediately centrifuged to obtain the plasma and the plasma frozen at -20 °C until analysis.
Aliquots of plasma (0.50 ml) were mixed with 0.020 ml of internal standard (acyclovir, 15 µg/ml in 10 % methanol/water) and 3.0 ml of acetonitrile. The mixture was vortexed and the resulting precipitate was removed by centrifugation (4,000 g, 10 min). The supernatant was evaporated to dryness under nitrogen and reconstituted in 200 µl of HPLC mobile phase. Aliquots (0.05 ml) were analyzed by HPLC using a Keystone Hypersil BDS, 250 x 4.6 mm C 18 column. The mobile phase contained 2 % acetonitrile in 30 mM sodium phosphate buffer containing 5 mM heptane sulfonic acid, pH 2.0 and was pumped at 1.0 ml/min. Ganciclovir and internal standard were detected and measured by UV absorbance at 254 nm.

[3] = in vivo, po; cited from earlier work
[4] = Determination of oral absorption (bioavailability) in the Cynomolgus monkey; type: in vivo, Male cynomolgus monkeys; settings: oral gavage dose equimolar to 10 mg/kg ganciclovir, plasma ganciclovir
Procedure: Male cynomolgus monkeys weighing 5 to 7 kilos were used. The animals were fed monkey chow, fruit and water and maintained on a 12 hour light cycle. The tested compounds were formulated at a concentration equimolar to a 10 mg/ml solution of ganciclovir in saline. The oral formulation was administered by gavage at a rate of 1.0 ml/kg for a final dose equimolar to a 10 mg/kg dose of ganciclovir. The iv formulation of ganciclovir was formulated in saline containing 0.2% HCl at a concentration of 20 mg/ml and administered at a rate of 0.5 ml/kg.
The animals were fasted beginning the evening prior to dosing and until 4 hr after dosing. […] The blood samples were collected in heparinized syringes and the plasma was immediately isolated by centrifugation and frozen at -20 °C until analysis.
The bioavailability (F) is calculated according to the equation given in Example 9.

[5] = relative to acyclovir; cited from earlier work

CC(C)[C@H](N)C(=O)OCC(CO)OCn1cnc2c(=O)nc(N)[nH]c21 (stereo partly drawn) [Formula I, 2-(2-amino-1,6-dihydro-6-oxo-purin-9-yl)methoxy-3-hydroxy-1-propanyl-L-valinate]
half-life [1]: less than one

CC(C)[C@H](N)C(=O)OCC(CO)OCn1cnc2c(=O)[nH]c(N)nc21.Cl (stereo partly drawn) [G-L-valinate hydrochloride, 2-(2-Amino-1,6-dihydro-6-oxo-purin-9-yl)methoxy-3-hydroxy-1-propanyl-L-valinate hydrochloride]
ORAL BIOAVAILABILITY (F %) ([2]; rat, in vivo, 1440 min): 98.1%

CCC(=O)OCC(COC(=O)CC)OCn1cnc2c(=O)[nH]c(N)nc21 [G-bis(propionic acid) ester]
more bioavailable than ganciclovir itself [3]: about 42% | ORAL BIOAVAILABILITY (F %) ([2]; rat, in vivo, 1440 min): 17.7%

Nc1nc2c(ncn2COC(COCc2ccccc2)COCc2ccccc2)c(=O)[nH]1 [G-dibenzyl ether]
ORAL BIOAVAILABILITY (F %) ([2]; male rats, single po and iv dose equimolar to 10 mg/kg ganciclovir, plasma ganciclovir AUC 0-24 hr): non-detectable

Nc1nc(O)c2ncn(COC(CO)CO)c2n1 [Ganciclovir, 2-(2-Amino-1,6-dihydro-6-oxo-purin-9-yl)-methoxy-1,3-propanediol]
bioavailability [4]: 9.9% | bioavailability at 24 h ([2]; rat, plasma, po, 10 mg/kg): 7.9%

NCC(=O)OCCOCn1cnc2c(=O)[nH]c(N)nc21 [glycyl ester of acyclovir]
solubility greater than the solubility of acyclovir itself [5]: about 30 fold
